Test system: rats
Assay: Tolerability after oral administration to rats
Assay type: in vivo
Conditions: 10 mg/kg

Structure (SMILES): CC#CCn1c(N2CCC[C@@H](N)C2)nc2c1c(=O)n(Cc1ncc3ccccc3n1)c(=O)n2C [2(80), 1-[(quinazolin-2-yl)methyl]-3-methyl-7-(2-butyn-1-yl)-8-((R)-3-amino-piperidin-1-yl)-xanthine]
- changes in the animals' behaviour: no changes in the animals' behaviour could be detected

Source: US9321791B2, “8-[3-amino-piperidin-1-yl]-xanthines, the preparation thereof and their use as pharmaceutical compositions” (Boehringer Ingelheim International GmbH, priority 2002, dated 2016)
